Laboratory results from PubChem BioAssay (NCI).
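96-well plates; 48 h exposure; 5 concentrations. Endpoints by linear interpolation between flanking doses. Not reached: highest tested concentration assigned. Definition used: TGI = concentration required for complete inhibition of growth.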

Columns and labels:
Experiment in all cases: NCI tumour cell line growth inhibition, 48 h
CAKI-1 renal = tested on: CAKI-1 renal
HCT-15 colon = tested on: HCT-15 colon
UACC-62 melanoma = tested on: UACC-62 melanoma
K-562 leukemia = tested on: K-562 leukemia
SW-620 colon = tested on: SW-620 colon
A549 NSCLC = tested on: A549 NSCLC
SF-295 CNS = tested on: SF-295 CNS
SF-539 CNS = tested on: SF-539 CNS
OVCAR-3 ovarian = tested on: OVCAR-3 ovarian
HOP-62 NSCLC = tested on: HOP-62 NSCLC
SK-MEL-5 melanoma = tested on: SK-MEL-5 melanoma
SF-268 CNS = tested on: SF-268 CNS
HCT-116 colon = tested on: HCT-116 colon
HT29 colon = tested on: HT29 colon
OVCAR-8 ovarian = tested on: OVCAR-8 ovarian
DLD-1 colon = tested on: DLD-1 colon

## COC(=O)/C(=N\O)C(C(=O)C=C(C)C)C(=O)C(=O)Nc1ccccc1C (centres undefined)
CAKI-1 renal
  TGI: > 100 µM
HCT-15 colon
  TGI: > 100 µM
UACC-62 melanoma
  TGI: > 100 µM
K-562 leukemia
  TGI: > 100 µM
SW-620 colon
  TGI: > 100 µM
A549 NSCLC
  TGI: > 100 µM
SF-295 CNS
  TGI: > 100 µM
SF-539 CNS
  TGI: > 100 µM
OVCAR-3 ovarian
  TGI: > 100 µM
HOP-62 NSCLC
  TGI: > 100 µM
SK-MEL-5 melanoma
  TGI: > 100 µM
SF-268 CNS
  TGI: > 100 µM
HCT-116 colon
  TGI: > 100 µM
HT29 colon
  TGI: > 100 µM
OVCAR-8 ovarian
  TGI: > 100 µM
DLD-1 colon
  TGI: > 100 µM

## CCCCCn1cnc2c1S(=O)(=O)N(C)C(NC(=O)c1ccccc1)=N2
CAKI-1 renal
  TGI: > 100 µM
HCT-15 colon
  TGI: > 100 µM
UACC-62 melanoma
  TGI: > 100 µM
K-562 leukemia
  TGI: > 100 µM
SW-620 colon
  TGI: > 100 µM
A549 NSCLC
  TGI: > 100 µM
SF-295 CNS
  TGI: > 100 µM
SF-539 CNS
  TGI: > 100 µM
OVCAR-3 ovarian
  TGI: > 100 µM
HOP-62 NSCLC
  TGI: > 100 µM
SK-MEL-5 melanoma
  TGI: > 100 µM
SF-268 CNS
  TGI: > 100 µM
HCT-116 colon
  TGI: > 100 µM
HT29 colon
  TGI: > 100 µM
OVCAR-8 ovarian
  TGI: > 100 µM
DLD-1 colon
  TGI: > 100 µM

## O=C1C2Nc3ccccc3SC2C(=O)N1c1cccc([N+](=O)[O-])c1 (centres undefined)
CAKI-1 renal
  TGI: > 100 µM
HCT-15 colon
  TGI: > 100 µM
UACC-62 melanoma
  TGI: > 100 µM
K-562 leukemia
  TGI: > 100 µM
SW-620 colon
  TGI: > 100 µM
A549 NSCLC
  TGI: > 100 µM
SF-295 CNS
  TGI: > 100 µM
SF-539 CNS
  TGI: > 100 µM
OVCAR-3 ovarian
  TGI: > 100 µM
HOP-62 NSCLC
  TGI: > 100 µM
SK-MEL-5 melanoma
  TGI: > 100 µM
SF-268 CNS
  TGI: > 100 µM
HCT-116 colon
  TGI: > 100 µM
HT29 colon
  TGI: > 100 µM
OVCAR-8 ovarian
  TGI: > 100 µM
DLD-1 colon
  TGI: > 100 µM

## N#C/C(=C\c1ccc(O)cc1O)C(N)=O
CAKI-1 renal
  TGI: > 100 µM
HCT-15 colon
  TGI: > 100 µM
UACC-62 melanoma
  TGI: > 100 µM
K-562 leukemia
  TGI: > 100 µM
SW-620 colon
  TGI: > 100 µM
A549 NSCLC
  TGI: > 100 µM
SF-295 CNS
  TGI: > 100 µM
SF-539 CNS
  TGI: > 100 µM
OVCAR-3 ovarian
  TGI: > 100 µM
HOP-62 NSCLC
  TGI: > 100 µM
SF-268 CNS
  TGI: > 100 µM
HCT-116 colon
  TGI: > 100 µM
HT29 colon
  TGI: 98.2 µM
OVCAR-8 ovarian
  TGI: > 100 µM
DLD-1 colon
  TGI: > 100 µM

## COc1ccc(/C(Cl)=C/c2ccc(Cl)c(Cl)c2)cc1
HCT-15 colon
  TGI: 97.3 µM
UACC-62 melanoma
  TGI: > 100 µM
K-562 leukemia
  TGI: > 100 µM
SW-620 colon
  TGI: > 100 µM
A549 NSCLC
  TGI: 83.6 µM
SF-295 CNS
  TGI: 74.9 µM
SF-539 CNS
  TGI: > 100 µM
HOP-62 NSCLC
  TGI: 79 µM
SK-MEL-5 melanoma
  TGI: 50.3 µM
SF-268 CNS
  TGI: > 100 µM
HCT-116 colon
  TGI: 80.3 µM
HT29 colon
  TGI: 47.5 µM
OVCAR-8 ovarian
  TGI: > 100 µM
DLD-1 colon
  TGI: > 100 µM

## Cn1c2c(cc(-c3ccccc3)c1=O)COc1ccccc1-2
CAKI-1 renal
  TGI: > 100 µM
HCT-15 colon
  TGI: > 100 µM
UACC-62 melanoma
  TGI: 28.9 µM
K-562 leukemia
  TGI: 53.2 µM
SW-620 colon
  TGI: > 100 µM
A549 NSCLC
  TGI: > 100 µM
SF-295 CNS
  TGI: 74.9 µM
SF-539 CNS
  TGI: > 100 µM
OVCAR-3 ovarian
  TGI: > 100 µM
HOP-62 NSCLC
  TGI: > 100 µM
SK-MEL-5 melanoma
  TGI: 39.9 µM
SF-268 CNS
  TGI: > 100 µM
HCT-116 colon
  TGI: 37.9 µM
HT29 colon
  TGI: 47.1 µM
OVCAR-8 ovarian
  TGI: > 100 µM
DLD-1 colon
  TGI: > 100 µM

## CC(C)c1cccc(C(C)C)c1NC1=CC(=O)C(=O)c2ccccc21
CAKI-1 renal
  TGI: > 100 µM
HCT-15 colon
  TGI: > 100 µM
UACC-62 melanoma
  TGI: > 100 µM
K-562 leukemia
  TGI: > 100 µM
SW-620 colon
  TGI: > 100 µM
A549 NSCLC
  TGI: > 100 µM
SF-295 CNS
  TGI: > 100 µM
SF-539 CNS
  TGI: > 100 µM
OVCAR-3 ovarian
  TGI: > 100 µM
HOP-62 NSCLC
  TGI: > 100 µM
SK-MEL-5 melanoma
  TGI: > 100 µM
SF-268 CNS
  TGI: > 100 µM
HCT-116 colon
  TGI: > 100 µM
HT29 colon
  TGI: > 100 µM
OVCAR-8 ovarian
  TGI: > 100 µM
DLD-1 colon
  TGI: > 100 µM

## Cc1nc(N)sc1C(=O)/C=C/c1ccc([N+](=O)[O-])cc1
CAKI-1 renal
  TGI: > 100 µM
HCT-15 colon
  TGI: > 100 µM
UACC-62 melanoma
  TGI: > 100 µM
K-562 leukemia
  TGI: > 100 µM
SW-620 colon
  TGI: > 100 µM
A549 NSCLC
  TGI: > 100 µM
SF-295 CNS
  TGI: > 100 µM
SF-539 CNS
  TGI: > 100 µM
OVCAR-3 ovarian
  TGI: > 100 µM
HOP-62 NSCLC
  TGI: > 100 µM
SK-MEL-5 melanoma
  TGI: > 100 µM
SF-268 CNS
  TGI: > 100 µM
HT29 colon
  TGI: > 100 µM
OVCAR-8 ovarian
  TGI: > 100 µM
DLD-1 colon
  TGI: > 100 µM

## COCC12CC(CC1=O)C1C2ON2c3ccccc3C(=O)C12c1ccccc1 (centres undefined)
HCT-15 colon
  TGI: > 100 µM
UACC-62 melanoma
  TGI: > 100 µM
K-562 leukemia
  TGI: > 100 µM
SW-620 colon
  TGI: > 100 µM
A549 NSCLC
  TGI: > 100 µM
SF-295 CNS
  TGI: > 100 µM
SF-539 CNS
  TGI: > 100 µM
HOP-62 NSCLC
  TGI: > 100 µM
SK-MEL-5 melanoma
  TGI: > 100 µM
SF-268 CNS
  TGI: > 100 µM
HCT-116 colon
  TGI: > 100 µM
HT29 colon
  TGI: > 100 µM
OVCAR-8 ovarian
  TGI: > 100 µM
DLD-1 colon
  TGI: > 100 µM

## COC(=O)c1cc(C)n(NC(=O)OC(C)(C)C)c1C
CAKI-1 renal
  TGI: > 100 µM
HCT-15 colon
  TGI: > 100 µM
UACC-62 melanoma
  TGI: > 100 µM
K-562 leukemia
  TGI: > 100 µM
SW-620 colon
  TGI: > 100 µM
A549 NSCLC
  TGI: > 100 µM
SF-295 CNS
  TGI: > 100 µM
SF-539 CNS
  TGI: > 100 µM
OVCAR-3 ovarian
  TGI: > 100 µM
HOP-62 NSCLC
  TGI: > 100 µM
SK-MEL-5 melanoma
  TGI: > 100 µM
SF-268 CNS
  TGI: > 100 µM
HCT-116 colon
  TGI: > 100 µM
HT29 colon
  TGI: > 100 µM
OVCAR-8 ovarian
  TGI: > 100 µM
DLD-1 colon
  TGI: > 100 µM
